pIC50: −log10 of the molar value.
Tested on: Staphylococcus aureus ATCC 29213
Experiment: MIC, microtitration broth method
Format: cell-based
Details: ATCC29213; SA = Staphylococcus aureus ATCC 29213; 24 h, 37 °C

**Q.** With `C=CCOc1ccc2c(c1)Nc1c(c[n+](C)c3ccccc13)S2` [Compound 6e, 10-allyloxy-5-methyl-12H-quino[3,4-b][1,4]benzothiazinium chloride] as the compound, how does the MIC read?
**A.** The MIC was 44.8 µM.

Tested on: methicillin-resistant S. aureus SA 3202 (MRSA1)
Experiment: MIC, microtitration broth method
Format: cell-based
Details: Staphylococcus aureus; MRSA1 = SA 3202; 24 h, 37 °C

**Q.** Which MIC does the source give for `C=CCOc1ccc2c(c1)Nc1c(c[n+](C)c3ccccc13)S2` [Compound 6e, 10-allyloxy-5-methyl-12H-quino[3,4-b][1,4]benzothiazinium chloride] here?
**A.** Its MIC is 44.8 µM.

Tested on: methicillin-resistant S. aureus SA 630 (MRSA2)
Experiment: MIC, microtitration broth method
Format: cell-based
Details: Staphylococcus aureus; MRSA2 = SA 630; 24 h, 37 °C

**Q.** For `C=CCOc1ccc2c(c1)Nc1c(c[n+](C)c3ccccc13)S2` [Compound 6e, 10-allyloxy-5-methyl-12H-quino[3,4-b][1,4]benzothiazinium chloride], which MIC is on record?
**A.** Its MIC is 44.8 µM.

Tested on: methicillin-resistant S. aureus 63718 (MRSA3)
Experiment: MIC, microtitration broth method
Format: cell-based
Details: Staphylococcus aureus; MRSA3 = 63718; 24 h, 37 °C

**Q.** Which MIC does the source give for `C=CCOc1ccc2c(c1)Nc1c(c[n+](C)c3ccccc13)S2` [Compound 6e, 10-allyloxy-5-methyl-12H-quino[3,4-b][1,4]benzothiazinium chloride] here?
**A.** Its MIC is 22.4 µM.

Tested on: Enterococcus faecalis ATCC 29212
Experiment: MIC, microtitration broth method
Format: cell-based
Details: ATCC29212; EF = Enterococcus faecalis; 24 h, 37 °C

**Q.** Which MIC does the source give for `C=CCOc1ccc2c(c1)Nc1c(c[n+](C)c3ccccc13)S2` [Compound 6e, 10-allyloxy-5-methyl-12H-quino[3,4-b][1,4]benzothiazinium chloride] here?
**A.** Its MIC is 89.6 µM.

Tested on: vancomycin-resistant E. faecalis VRE 342B (VRE1)
Experiment: MIC, microtitration broth method
Format: cell-based, Enterococcus faecalis
Details: VRE1 = VRE 342B; 24 h, 37 °C

**Q.** For `C=CCOc1ccc2c(c1)Nc1c(c[n+](C)c3ccccc13)S2` [Compound 6e, 10-allyloxy-5-methyl-12H-quino[3,4-b][1,4]benzothiazinium chloride], which MIC is on record?
**A.** The MIC was 179 µM.

Tested on: vancomycin-resistant E. faecalis VRE 368 (VRE2)
Experiment: MIC, microtitration broth method
Format: cell-based, Enterococcus faecalis
Details: VRE2 = VRE 368; 24 h, 37 °C

**Q.** For `C=CCOc1ccc2c(c1)Nc1c(c[n+](C)c3ccccc13)S2` [Compound 6e, 10-allyloxy-5-methyl-12H-quino[3,4-b][1,4]benzothiazinium chloride], which MIC is on record?
**A.** The MIC was 179 µM.

Tested on: vancomycin-resistant E. faecalis VRE 725B (VRE3)
Experiment: MIC, microtitration broth method
Format: cell-based, Enterococcus faecalis
Details: VRE3 = VRE 725B; 24 h, 37 °C

**Q.** Which MIC does the source give for `C=CCOc1ccc2c(c1)Nc1c(c[n+](C)c3ccccc13)S2` [Compound 6e, 10-allyloxy-5-methyl-12H-quino[3,4-b][1,4]benzothiazinium chloride] here?
**A.** The MIC was 89.6 µM.

Tested on: M. smegmatis ATCC 700084
Experiment: In vitro antimycobacterial MIC, broth dilution micro-method
Format: cell-based, Mycobacterium smegmatis
Details: Mycolicibacterium smegmatis, ATCC700084, 72 h; MS = M. smegmatis ATCC 700084; 3 days, 37 °C

**Q.** With `C=CCOc1ccc2c(c1)Nc1c(c[n+](C)c3ccccc13)S2` [Compound 6e, 10-allyloxy-5-methyl-12H-quino[3,4-b][1,4]benzothiazinium chloride] as the compound, how does the MIC read?
**A.** The MIC was 22.4 µM.

Tested on: Mycobacterium marinum CAMP 5644
Experiment: as above
Format: cell-based
Details: CAMP5644, 504 h; MM = Mycobacterium marinum CAMP 5644; 21 days, 28 °C

**Q.** For `C=CCOc1ccc2c(c1)Nc1c(c[n+](C)c3ccccc13)S2` [Compound 6e, 10-allyloxy-5-methyl-12H-quino[3,4-b][1,4]benzothiazinium chloride], which MIC is on record?
**A.** Its MIC is 11.2 µM.

Tested on: Staphylococcus aureus ATCC 29213
Experiment: MBC, agar aliquot subculture method
Format: cell-based
Details: ATCC29213; SA = Staphylococcus aureus ATCC 29213

**Q.** Which MBC does the source give for `C=CCOc1ccc2c(c1)Nc1c(c[n+](C)c3ccccc13)S2` [Compound 6e, 10-allyloxy-5-methyl-12H-quino[3,4-b][1,4]benzothiazinium chloride] here?
**A.** Its MBC is 44.8 µM.

Tested on: methicillin-resistant S. aureus SA 3202 (MRSA1)
Experiment: MBC, agar aliquot subculture method
Format: cell-based
Details: Staphylococcus aureus; MRSA1 = SA 3202

**Q.** With `C=CCOc1ccc2c(c1)Nc1c(c[n+](C)c3ccccc13)S2` [Compound 6e, 10-allyloxy-5-methyl-12H-quino[3,4-b][1,4]benzothiazinium chloride] as the compound, how does the MBC read?
**A.** The MBC was 44.8 µM.

Tested on: methicillin-resistant S. aureus SA 630 (MRSA2)
Experiment: MBC, agar aliquot subculture method
Format: cell-based
Details: Staphylococcus aureus; MRSA2 = SA 630

**Q.** For `C=CCOc1ccc2c(c1)Nc1c(c[n+](C)c3ccccc13)S2` [Compound 6e, 10-allyloxy-5-methyl-12H-quino[3,4-b][1,4]benzothiazinium chloride], which MBC is on record?
**A.** Its MBC is 44.8 µM.

Tested on: methicillin-resistant S. aureus 63718 (MRSA3)
Experiment: MBC, agar aliquot subculture method
Format: cell-based
Details: Staphylococcus aureus; MRSA3 = 63718

**Q.** For `C=CCOc1ccc2c(c1)Nc1c(c[n+](C)c3ccccc13)S2` [Compound 6e, 10-allyloxy-5-methyl-12H-quino[3,4-b][1,4]benzothiazinium chloride], which MBC is on record?
**A.** Its MBC is 22.4 µM.

Tested on: Enterococcus faecalis ATCC 29212
Experiment: MBC, agar aliquot subculture method
Format: cell-based
Details: ATCC29212; EF = Enterococcus faecalis

**Q.** With `C=CCOc1ccc2c(c1)Nc1c(c[n+](C)c3ccccc13)S2` [Compound 6e, 10-allyloxy-5-methyl-12H-quino[3,4-b][1,4]benzothiazinium chloride] as the compound, how does the MBC read?
**A.** Its MBC is 89.6 µM.

Tested on: vancomycin-resistant E. faecalis VRE 342B (VRE1)
Experiment: MBC, agar aliquot subculture method
Format: cell-based, Enterococcus faecalis
Details: VRE1 = VRE 342B

**Q.** With `C=CCOc1ccc2c(c1)Nc1c(c[n+](C)c3ccccc13)S2` [Compound 6e, 10-allyloxy-5-methyl-12H-quino[3,4-b][1,4]benzothiazinium chloride] as the compound, how does the MBC read?
**A.** Its MBC is 179 µM.

Tested on: vancomycin-resistant E. faecalis VRE 368 (VRE2)
Experiment: MBC, agar aliquot subculture method
Format: cell-based, Enterococcus faecalis
Details: VRE2 = VRE 368

**Q.** Which MBC does the source give for `C=CCOc1ccc2c(c1)Nc1c(c[n+](C)c3ccccc13)S2` [Compound 6e, 10-allyloxy-5-methyl-12H-quino[3,4-b][1,4]benzothiazinium chloride] here?
**A.** The MBC was 179 µM.

Tested on: vancomycin-resistant E. faecalis VRE 725B (VRE3)
Experiment: MBC, agar aliquot subculture method
Format: cell-based, Enterococcus faecalis
Details: VRE3 = VRE 725B

**Q.** With `C=CCOc1ccc2c(c1)Nc1c(c[n+](C)c3ccccc13)S2` [Compound 6e, 10-allyloxy-5-methyl-12H-quino[3,4-b][1,4]benzothiazinium chloride] as the compound, how does the MBC read?
**A.** The MBC was 89.6 µM.

Tested on: normal human dermal fibroblasts (NHDF)
Experiment: In vitro cell viability, WST-1 assay
Format: cell-based
Details: 72 h
Description: Compounds were evaluated for their antiproliferative activity using NHDF (normal human dermal fibroblasts, ATCC, Manassas, VA, USA). The cultured cells were kept at 37 °C and 5% CO2. The cells were seeded (1 × 10^4 cells/well/100 μL DMEM supplemented with 10% FCS and streptomycin/penicillin) into 96-well plates (Corning Inc., Corning, NY, USA). Cells were counted using a hemocytometer (Burker chamber) and phase contrast Olympus IX50 microscope equipped with Sony SSC-DC58 AP camera and Olympus DP10 digital camera. The cell viability of the compounds was determined using the Cell Proliferation Reagent WST-1 assay (Roche Molecular Biochemicals, Mannheim, Germany). The examined cells were exposed to the tested compounds (1 mg/mL DMSO stock) for 72 h at various concentrations (0.1–100 μg/mL). The control was included in order to eliminate the DMSO effect at the concentration used. Cell cultures were incubated with WST-1 (10 μL) for 1 h. The absorbance of the samples was measured against a background control at 450 nm using a microplate reader with a reference wavelength at 600 nm. The obtained results are expressed as means of at least two independent experiments performed in triplicate.

**Q.** With `C=CCOc1ccc2c(c1)Nc1c(c[n+](C)c3ccccc13)S2` [Compound 6e, 10-allyloxy-5-methyl-12H-quino[3,4-b][1,4]benzothiazinium chloride] as the compound, how does the pIC50 read?
**A.** Its pIC50 is under 4.00.

Tested on: not listed separately
Experiment: Lipophilicity by RP-TLC
Format: physicochemical
Details: Tris buffer pH 7.4/acetone, read-out: logPTLC
Description: The lipophilicity parameters were determined experimentally using reverse phase thin-layer chromatography (RP-TLC). Chromatograms were prepared on RP-18F254s plates (1.05559.0001, Merck, Germany) precoated with nonpolar silicone oil. Plates were developed in glass chromatography chambers previously saturated with vapor of mobile phase. The mobile phase was composed of 0.2M Tris buffer (pH = 7.4) and acetone in different concentrations, i.e., 50%, 60%, 70%, 80 and 90%. The chromatograms were visualised in UV light (λ = 254 nm). Determination of the RF coefficient was carried out twice for all compounds; in all cases, acetone concentrations used. The final value of RF is the mean of the two measurements. The obtained RF coefficient was used to calculate the value of the RM parameter according to the equation: RM = log [(1/RF) − 1]. By extrapolating RM values to zero acetone concentration, a relative RM0 lipophilicity parameter was obtained, according to the equation: RM = RM0 + bC, where b is slope and C is concentration of acetone in mobile phase. Based on RM0 and the calibration curve, the values of logPTLC for compounds 6a–l were determined. The calibration curve was calculated using the relationship between RM0 of the standard molecules (acetanilide, p-kresol, p-bromoacetophenone, benzophenone, anthracene) and the corresponding logP parameters specified by the extraction method, respectively. RM0 parameters of the standard molecules and quinobenzothiazine derivatives 6a–l were determined in the same empirical conditions.

**Q.** Which chromatographic logP does the source give for `C=CCOc1ccc2c(c1)Nc1c(c[n+](C)c3ccccc13)S2` [Compound 6e, 10-allyloxy-5-methyl-12H-quino[3,4-b][1,4]benzothiazinium chloride] here?
**A.** The chromatographic logP was 2.47.

Tested on: S. aureus ATCC 29213 respiratory activity
Experiment: MTT assay of bacterial respiration
Format: cell-based, Staphylococcus aureus
Details: S. aureus ATCC 29213, MTT, 24 h

**Q.** With `C=CCOc1ccc2c(c1)Nc1c(c[n+](C)c3ccccc13)S2` [Compound 6e, 10-allyloxy-5-methyl-12H-quino[3,4-b][1,4]benzothiazinium chloride] as the compound, how does the “Conc.: corresponding multiple of MBC with at least 70% inhibition of respiratory activity” value read?
**A.** The value was 2× MIC (2× MBC).

**Q.** And the “Conc.: lowest multiple of MIC with at least 70% inhibition of respiratory activity” value?
**A.** Its value is 2× MIC (2× MBC).

Same assay, conditions: S. aureus ATCC 29213, at MIC

**Q.** For `C=CCOc1ccc2c(c1)Nc1c(c[n+](C)c3ccccc13)S2` [Compound 6e, 10-allyloxy-5-methyl-12H-quino[3,4-b][1,4]benzothiazinium chloride], which “Decrease in viability < 70% at MIC value (MTT)” value is on record?
**A.** Its value is “did not show a decrease in viability < 70%”.

Same assay, conditions: at the concentration given

**Q.** For `C=CCOc1ccc2c(c1)Nc1c(c[n+](C)c3ccccc13)S2` [Compound 6e, 10-allyloxy-5-methyl-12H-quino[3,4-b][1,4]benzothiazinium chloride], which “S. aureus Respiration Inhibition” value is on record?
**A.** Its value is 97.4%.

Tested on: S. aureus
Experiment: Crystal violet uptake (membrane permeability)
Format: cell-based, Staphylococcus aureus
Details: 4× MIC, 1 h; compared to growth control and 1% Tween 20
Description: Phenothiazines are also known for their ability to interact with and damage the cell wall, which has fatal consequences for the microorganism. Therefore, the bacterial suspensions were treated by compounds 6a, 6e, 6g, 6j and 6k (4× MIC) for 1 h. The uptake of crystal violet was expressed as a percentage compared to the original crystal violet solution.

**Q.** For `C=CCOc1ccc2c(c1)Nc1c(c[n+](C)c3ccccc13)S2` [Compound 6e, 10-allyloxy-5-methyl-12H-quino[3,4-b][1,4]benzothiazinium chloride], which “Effect on plasma membrane permeability (uptake of crystal violet)” value is on record?
**A.** The value was “did not affect plasma membrane permeability”.
